target: T1, BRD4 BD1 (Homo sapiens, UniProt O60885); assay: HTRF in vitro enzyme activity assay, inhibition of BRD4 BD1 binding to acetylated H4 peptide; conditions: IC50 values of the compounds against BRD4 BD1 binding; class symbols A/B/C
T1 construct: Protein BRD4 BD1 used in the assay was purchased from Active Motif (cat. 31380); purchased Active Motif 31380
Protocol: Effect Examples: In Vitro Enzyme Activity Assay
Half inhibitory activity (IC50) of the compounds of the invention against the bromodomain protein BRD4 BD1 was determined in the present Examples.
The compounds of the invention were tested for inhibitory activity against BRD4 BD1 with Homogeneous Time-Resolved Fluorescence (HTRF).
2. Reagents, Consumable Materials and Instruments:
Protein BRD4 BD1 used in the assay was purchased from Active Motif (cat. 31380); streptavidin XL-665 (#610SAXLA) and EPIgeneous Binding Domain Kit A (#62BDAPEG) were both purchased from Cisbio Bioassays; [Lys(5,8,12,16)Ac] H4(1-21)-biotin (#64989), [Lys(5,8,12,16)Ac]H4(1-25) were available from Anaspec; OTX015 and ABBV-075 were purchased from Selleckchem Co. The 384-well ProxiPlate (#6008280) was purchased from Perkinelmer Co. The Laboratory microplate reader (Envision 2104) was available from PerkinElmer Co. The water used in the assay was Millipore-Q pure water.
3. Formulation of the Compound
10 mM DMSO stock solution of the test compound was diluted to 1 mM in DMSO, and then diluted 10-fold in Binding Domain dilution buffer (purchased from Cisbio Bioassays) for use (DMSO concentration in the final system was 0.1%), including 5 concentrations in 1:5 gradient.
4. Assay Protocol: 1 Batch, 2 Repeats
1) 5 μL of test compound was transferred to 45 μL Binding Domain dilution buffer.
2) 2 μL of 1× compound (4 μL Binding Domain dilution buffer: positive control; 6 μL enzyme buffer (purchased from Cisbio Bioassays): negative control) was transferred to a reaction plate.
3) 4 μL of 5×BRD 4(1) was added to the reaction plate (30 nM in the final system).
4) 4 μL of 5×[Lys(5,8,12,16)Ac] H4(1-21)-biotin was added to the reaction plate, and the plate was covered with a film and incubated at 37° C. for 30 min.
5) A detection mixture of SA-XL665 (2×) and anti-H3K9me0-Eu(K) (2×) was prepared in detection buffer (purchased from Cisbio Bioassays).
6) 10 μL of detection mixture (2×) was added to each well, incubated at RT for 3 h. The mp value was read by microplate reader Envision with the following parameters: […]

| SMILES | IC50 |
| --- | --- |
| CC1C(=O)N(C)c2ccc(N3C(=O)N(C)CC3c3ccccc3)nc2N1C1CC1 (single isomer, unassigned) [Example A19-P3, 4-cyclopropyl-1,3-dimethyl-6-(3-methyl-2-oxo-5-phenylimidazolidin-1-yl)-3,4-dihydropyrido[2,3-b]pyrazin-2(1H)-one] | ≤ 10 nM |
| CC1C(=O)N(C)c2ccc(N3C(=O)c4cccnc4C3(O)c3ccc(F)cc3F)nc2N1C1CC1 (single isomer, unassigned) [Example A13-P1, 4-cyclopropyl-6-(7-(2,4-difluorophenyl)-7-hydroxy-5-oxo-5,7-dihydro-6H-pyrrolo[3,4-b]pyridin-6-yl)-1,3-dimethyl-3,4-dihydropyrido[2,3-b]pyrazin-2(1H)-one] | ≤ 10 nM |
| CC1C(=O)N(C)c2ccc(N3C(=O)CCN3c3ccc(Cl)cc3)nc2N1C1CC1 (single isomer, unassigned) [Example A10-P2, 6-(2-(4-chlorophenyl)-5-oxopyrazolidin-1-yl)-4-cyclopropyl-1,3-dimethyl-3,4-dihydropyrido[2,3-b]pyrazin-2(1H)-one] | 10 to 100 nM |
| C[C@@H]1C(=O)N(C)c2ccc(N3C(=O)CCC3c3ccccc3)nc2N1C1CCOCC1 (single isomer, unassigned) [Example A5-P1] | ≤ 10 nM |
| C[C@@H]1C(=O)N(C)c2cnc(N3C(=O)c4c(cccc4S(C)(=O)=O)C3(O)c3cccnc3)nc2N1C (stereo partly drawn) [Example A104-P3, (7R)-2-(1-hydroxy-4-(methylsulfonyl)-3-oxo-1-(pyridin-3-yl)isoindolin-2-yl)-5,7,8-trimethyl-7,8-dihydropteridin-6(5H)-one] | ≤ 10 nM |
| C[C@@H]1C(=O)N(C)c2ccc(N3C(=O)c4cccnc4C3(O)c3ccccc3)nc2N1C (single isomer, unassigned) [Example A76-P1] | ≤ 10 nM |
| CNC(=O)c1cccc2c1C(=O)N(c1ccc3c(n1)N(C)C(C)C(=O)N3C)C2c1ccccc1 (single isomer, unassigned) [Example A88-P4, N-methyl-3-oxo-1-phenyl-2-(1,3,4-trimethyl-2-oxo-1,2,3,4-tetrahydropyrido[2,3-b]pyrazin-6-yl)isoindoline-4-carboxamide] | ≤ 10 nM |
| CC1C(=O)N(C)c2ccc(-n3c(=O)c4ccccc4n3-c3ccc(Cl)cc3)nc2N1C1CC1 (single isomer, unassigned) [Example A12-P1, 6-(1-(4-chlorophenyl)-3-oxo-1,3-dihydro-2H-indazol-2-yl)-4-cyclopropyl-1,3-dimethyl-3,4-dihydropyrido[2,3-b]pyrazin-2(1H)-one] | ≤ 10 nM |
| C[C@H]1Nc2nc(N3C(=O)CCC3c3ccccc3)ccc2N(C)C1=O (single isomer, unassigned) [Example A20-P1] | 10 to 100 nM |
| CC1Oc2nc(-n3c(=O)c4ccccc4n3-c3ccc(Cl)cc3)ccc2N(C)C1=O (stereo not shown) [Example A32-P3, 6-(1-(4-chlorophenyl)-3-oxo-1,3-dihydro-2H-indazol-2-yl)-1,3-dimethyl-1H-pyrido[2,3-B][1,4]oxazin-2(3H)-one] | 10 to 100 nM |
| CCN1C(=O)C(C)N(C2CCCC2)c2nc(-n3c(=O)c4ccccc4n3-c3ccc(Cl)cc3)ccc21 (racemic) [Example A28, 6-(1-(4-chlorophenyl)-3-oxo-1,3-dihydro-2H-indazol-2-yl)-4-cyclopentyl-1-ethyl-3-methyl-3,4-dihydropyridine [2,3-b]pyrazin-2(1H)-one] | 10 to 100 nM |
| CCN1c2nc(N3C(=O)CCC3c3ccc(F)cc3)ccc2N(C)C(=O)[C@H]1C (single isomer, unassigned) [Example A16-P1] | ≤ 10 nM |

Results, then the compound that gave them:

| IC50 | SMILES |
| --- | --- |
| ≤ 10 nM | CC1C(=O)N(C)c2cc(F)c(N3C(=O)c4ccccc4C3c3cccnc3)nc2N1C1CC1 (stereo not shown) [Example A44, 4-cyclopropyl-7-fluoro-1,3-dimethyl-6-(1-oxo-3-(pyridin-3-yl)isoindolin-2-yl)-3,4-dihydropyrido [2,3-b]pyrazin-2(1H)-one] |
| ≤ 10 nM | CC1C(=O)N(C)c2cnc(N3C(=O)c4ccccc4C3c3cccnc3)cc2N1C1CC1 (single isomer, unassigned) [Example A70-P3, 1-cyclopropyl-2,4-dimethyl-7-(1-oxo-3-(pyridin-3-yl)isoindolin-2-yl)-1,4-dihydropyrido[3,4-b]pyrazin-3(2H)-one] |
| ≤ 10 nM | C[C@@H]1C(=O)N(C)c2cnc(N3C(=O)c4c(cccc4C(C)(C)O)C3c3ccc(F)cc3)nc2N1C1CC1 (stereo partly drawn) [Example A94-P4, (7R)-8-cyclopropyl-2-(3-oxo-1-(4-fluorophenyl)-4-(2-hydroxyprop-2-yl)isoindolin-2-yl)-5,7-dimethyl-7,8-dihydropteridin-6(5H)-one] |
| ≤ 10 nM | CC1C(=O)N(CCF)c2ccc(N3C(=O)c4ccccc4C3c3cccnc3)nc2N1C1CC1 (stereo not shown) [Example A52-P4, 4-cyclopropyl-1-(2-fluoroethyl)-3-methyl-6-(1-oxo-3-(pyridin-3-yl)isoindolin-2-yl)-3,4-dihydropyrido [2,3-b]pyrazin-2(1H)-one] |
| 10 to 100 nM | C[C@H]1Oc2nc(N3C(=O)c4ccccc4C3c3ccc(F)nc3)c(F)cc2N(C)C1=O (single isomer, unassigned) [Example A126-P1] |
| ≤ 10 nM | CC1C(=O)N(C)c2ccc(N3C(=O)c4cc(C(=O)O)ccc4C3c3ccc(F)cc3)nc2N1C1CC1 (stereo not shown) [A77-P1/P4, 2-(4-cyclopropyl-1,3-dimethyl-2-oxo-1,2,3,4-tetrahydropyrido[2,3-b]pyrazin-6-yl)-1-(4-fluorophenyl)-3-oxoisoindoline-5-carboxylic acid] |
| ≤ 10 nM | CC1C(=O)N(C)c2ccc(N3C(=O)c4ccccc4C3c3ccc(Cl)cc3)nc2N1C1COC1 (stereo not shown) [Example A31-P3, 6-(1-(4-chlorophenyl)-3-oxoisoindolin-2-yl)-1,3-dimethyl-4-(oxacyclebutan-3-yl)-3,4-dihydropyrido [3,2-B]pyrazin-2(1H)-one] |
| ≤ 10 nM | CC1C(=O)N(C)c2cnc(N3C(=O)c4ccccc4C3c3cccnc3)nc2N1C1CC1 (single isomer, unassigned) [Example A98-P3, 8-cyclopropyl-5,7-dimethyl-2-(1-oxo-3-(pyridin-3-yl)isoindolin-2-yl)-7,8-dihydropteridin-6(5H)-one] |
| ≤ 10 nM | CC1C(=O)N(C)c2ccc(N3C(=O)c4ccccc4C3c3ccc(F)cn3)nc2N1C1CC1 (single isomer, unassigned) [Example A68-P3, 4-cyclopropyl-6-(1-(5-fluoropyridin-2-yl)-3-oxoisoindolin-2-yl)-1,3-dimethyl-3,4-dihydropyrido[2,3-b]pyrazin-2(1H)-one] |
| ≤ 10 nM | CC1C(=O)N(C)c2ccc(N3C(=O)c4ccccc4C3c3ccc(F)cc3)nc2N1C1CC1 (single isomer, unassigned) [Example A23P4, 4-cyclopropyl-6-(1-(4-fluorophenyl)-3-oxoisoindolin-2-yl)-1,3-dimethyl-3,4-dihydropyrido[2,3-b]pyrazin-2(1H)-one] |
| ≤ 10 nM | C[C@@H]1C(=O)N(C)c2cnc(N3C(=O)c4c(cccc4[S+](C)[O-])C3c3cccnc3)nc2N1C (stereo partly drawn) [A102-P2/P3, (7R)-5,7,8-trimethyl-2-(4-(methylsulfinyl)-3-oxo-1-(pyridin-3-yl)isoindolin-2-yl)-7,8-dihydropteridin-6(5H)-one] |
| ≤ 10 nM | CSc1cccc2c1C(=O)N(c1ccc3c(n1)N(C)[C@H](C)C(=O)N3C)C2c1cccnc1 (mixture of isomers) [Example A61, (3R)-1,3,4-trimethyl-6-(4-(methylthio)-3-oxo-1-(pyridin-3-yl)isoindolin-2-yl)-3,4-dihydropyrido[2,3-b]pyrazin-2(1H)-one] |
| ≤ 10 nM | C[C@@H]1C(=O)N(C)c2ccc(N3C(=O)c4ccccc4C3c3ccccn3)nc2N1C (stereo partly drawn) [Example A42-P2, (3R)-1,3,4-trimethyl-6-(1-oxo-3-(pyridin-2-yl)isoindolin-2-yl)-3,4-dihydropyrido [2,3-b]pyrazin-2-(1H)-one] |
| ≤ 10 nM | CC1C(=O)N(C)c2ccc(N3C(=O)c4cc(F)ccc4C3c3cccnc3)nc2N1C1CC1 (single isomer, unassigned) [Example A74-P4, 4-cyclopropyl-6-(5-fluoro-3-oxo-1-(pyridin-3-yl)isoindolin-2-yl)-1,3-dimethyl-3,4-dihydropyrido[2,3-b]pyrazin-2(1H)-one] |
| 100 to 1000 nM | C[C@H]1Oc2cc(N3C(=O)c4ccccc4C3c3ccc(F)nc3)ncc2N(C)C1=O (single isomer, unassigned) [Example A125-P1] |
| ≤ 10 nM | CC1C(=O)N(C)c2ccc(N3C(=O)c4c(cccc4[S+](C)[O-])C3c3cccnc3)nc2N1C1CC1 (single isomer, unassigned) [Example A60-P3] |

— patent US20210261539A1, “COMPOUND HAVING BET INHIBITORY ACTIVITY AND PREPARATION METHOD AND USE THEREFOR” (Shanghai Haihe Pharmaceutical Co., Ltd., priority 2018, published 2021)
